As usually defined, the AC50 is the midpoint of the concentration-response curve, whichever way the signal moves. As a reminder, the EC50 is the concentration at which the effect is half-maximal.

SMILES strings stand for the structures. Activity calls are given as the source filed them.

One data set addresses Cytochrome P450 2C19 (Homo sapiens, UniProt P33261). Put plainly: Cytochrome panel assay with activity outcomes. Panel member name: p450-cyp2c19 Compounds with AC50 equal or less than 10 uM are considered active. The class given is functional.
Data set [1] is described as follows: cytotoxicity toward NIH3T3 fibroblasts, dose response, counter-screen, cell-based, ATP luminescence, mouse fibroblasts (AID 2010).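 Note: cells exposed to compound for about 90 hours before reading.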 Type of data set: functional. (In general: The purpose of a counterscreen is to sort out artefacts and off-target activity.)
A short description of data set [2]: inhibitors of intracellular T. cruzi replication, confirmation, NIH3T3 host cells, beta-gal luminescence (AID 2044).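 Note: intracellular parasites grown in NIH/3T3 mouse fibroblasts as host cells; luminescent beta-galactosidase reporter signal from transgenic T. cruzi replicating inside host cells; inhibitors lower the luminescence signal.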 Type of data set: functional, cell-based.
The target of a further data set is Cytochrome P450 2C9 (Homo sapiens, UniProt P11712).
In a further data set the target is T1, Streptokinase A (Streptococcus pyogenes serotype M1, UniProt P10520).
T1 sequence (P10520 whole entry): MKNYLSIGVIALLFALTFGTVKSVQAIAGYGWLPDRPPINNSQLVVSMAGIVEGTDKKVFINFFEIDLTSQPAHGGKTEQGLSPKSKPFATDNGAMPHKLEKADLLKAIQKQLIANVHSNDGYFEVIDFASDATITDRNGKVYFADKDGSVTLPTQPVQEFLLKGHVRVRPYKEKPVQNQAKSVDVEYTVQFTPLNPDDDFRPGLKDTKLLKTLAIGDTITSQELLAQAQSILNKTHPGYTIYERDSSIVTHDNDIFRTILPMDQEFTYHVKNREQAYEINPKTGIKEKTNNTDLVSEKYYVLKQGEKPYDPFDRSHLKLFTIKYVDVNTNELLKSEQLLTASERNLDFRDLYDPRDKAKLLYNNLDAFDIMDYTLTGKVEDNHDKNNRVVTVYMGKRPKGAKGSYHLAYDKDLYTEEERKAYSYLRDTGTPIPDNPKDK
Description: S. pyogenes streptokinase expression inhibitors, potency, dose response, plasminogen activation absorbance, OD405 (AID 1914).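 Note: secreted streptokinase activity via plasminogen activation per viability signal from cell pellet.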 The class given is functional, Streptococcus pyogenes M1 GAS.

The test system of another data set is Streptococcus. Put plainly: Group A Streptococcus viability loss, dose response, counter-screen for streptokinase expression inhibitor project, luminescence, BacTiterGlo (AID 1915).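 Note: potency for reduction of bacterial viability or growth.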 The class given is functional, organism-based.
Data set [3] relates to Streptococcus sp. 'group A'. Put plainly: growth inhibition of control SK(-) GAS strain, dose response, counter-screen for streptokinase expression inhibitor project, luminescence, kanamycin, BacTiterGlo, confirmation (AID 1900). Type of data set: functional, organism-based.
Another data set addresses T2, Cytochrome P450 1A2 (Homo sapiens, UniProt P05177).
T2 sequence (P05177 whole entry): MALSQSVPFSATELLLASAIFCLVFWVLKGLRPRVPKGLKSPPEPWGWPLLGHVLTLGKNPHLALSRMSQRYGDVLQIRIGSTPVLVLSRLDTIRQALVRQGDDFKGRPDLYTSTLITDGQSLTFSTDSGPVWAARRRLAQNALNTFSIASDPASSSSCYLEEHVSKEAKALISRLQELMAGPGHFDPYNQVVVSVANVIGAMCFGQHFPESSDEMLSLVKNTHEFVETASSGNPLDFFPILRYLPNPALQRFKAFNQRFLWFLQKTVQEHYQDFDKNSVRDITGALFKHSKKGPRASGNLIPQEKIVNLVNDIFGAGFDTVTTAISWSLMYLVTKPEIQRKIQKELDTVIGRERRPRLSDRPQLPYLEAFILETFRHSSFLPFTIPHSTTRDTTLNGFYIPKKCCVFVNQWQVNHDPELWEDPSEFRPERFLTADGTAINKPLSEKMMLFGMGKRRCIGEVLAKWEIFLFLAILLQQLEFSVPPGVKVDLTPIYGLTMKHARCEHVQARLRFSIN

Sequence of Cytochrome P450 2C9 (P11712 whole entry): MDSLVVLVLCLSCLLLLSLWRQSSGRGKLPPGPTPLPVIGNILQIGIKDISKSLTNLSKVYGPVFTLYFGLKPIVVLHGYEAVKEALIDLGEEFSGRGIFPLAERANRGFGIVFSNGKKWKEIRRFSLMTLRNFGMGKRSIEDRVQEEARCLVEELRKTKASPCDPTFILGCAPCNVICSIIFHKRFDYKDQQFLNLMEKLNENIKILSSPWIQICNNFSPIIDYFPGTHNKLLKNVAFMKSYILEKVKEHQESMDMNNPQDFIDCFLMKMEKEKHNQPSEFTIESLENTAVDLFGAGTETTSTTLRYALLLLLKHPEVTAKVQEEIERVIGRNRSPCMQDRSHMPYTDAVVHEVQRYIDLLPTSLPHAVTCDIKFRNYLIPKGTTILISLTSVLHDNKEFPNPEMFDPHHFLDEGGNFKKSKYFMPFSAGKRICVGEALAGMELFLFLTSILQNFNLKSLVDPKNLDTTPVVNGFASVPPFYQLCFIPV
Sequence of Cytochrome P450 2C19 (P33261 whole entry): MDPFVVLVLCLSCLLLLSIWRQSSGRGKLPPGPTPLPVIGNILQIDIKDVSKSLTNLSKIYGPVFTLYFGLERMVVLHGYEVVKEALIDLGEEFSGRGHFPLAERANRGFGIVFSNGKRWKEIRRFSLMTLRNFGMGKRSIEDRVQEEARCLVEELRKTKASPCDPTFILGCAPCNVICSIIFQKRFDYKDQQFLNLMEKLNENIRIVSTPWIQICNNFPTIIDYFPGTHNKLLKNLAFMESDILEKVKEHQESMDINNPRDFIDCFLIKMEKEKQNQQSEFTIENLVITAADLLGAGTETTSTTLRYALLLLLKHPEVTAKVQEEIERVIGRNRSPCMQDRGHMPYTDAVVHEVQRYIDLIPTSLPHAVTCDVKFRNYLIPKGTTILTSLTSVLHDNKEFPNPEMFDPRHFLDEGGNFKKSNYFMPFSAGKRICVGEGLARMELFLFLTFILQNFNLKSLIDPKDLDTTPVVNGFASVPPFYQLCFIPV

Take `CC(C)CNc1nc(N)nc(O)c1NC=O`: the AC50 result on Cytochrome P450 2C19 is recorded as “inconclusive”.
`Cc1cc(Br)ccc1OCCN1CCCC1`: the EC50 in data set [1] is 58.7 µM (active); in data set [2], 0.651 µM (active).
Consider `COC(=O)c1[nH]c2cc(OC)ccc2c1NC(=O)CCN1CCSCC1`, for which the AC50 on Cytochrome P450 2C9 is 22.4 µM (inconclusive).
With `CCn1cc(C(=O)OCC(=O)c2cc(C)n(-c3cccc(C(F)(F)F)c3)c2C)c(=O)c2ccc(C)nc21`, the EC50 on Streptokinase A was 21.6 µM (active); in the data set on Streptococcus, > 50 µM (not active); in data set [3] it was 5.68 µM (active).
`Cc1cc(Cl)ccc1OCC(=O)N/N=C1\CCCc2ccccc21`: the AC50 at Cytochrome P450 1A2 was 2.51 µM (inconclusive); at Cytochrome P450 2C9 it was 3.55 µM (inconclusive).
Regarding `CNCCCCCCCCSc1nc(C(C)C)ccc1C(=O)c1cccs1`, the concentration at half-maximal activity (AC50) at Cytochrome P450 2C9 was 25.1 µM (inconclusive).
In the case of `C=C1CCC2C(C)(C)[C@@H](O)CC[C@@]2(C)[C@@H]1COc1ccc2ccc(=O)oc2c1` (some centres undefined), the values for the EC50 (at Streptokinase A; in the data set with Streptococcus; in data set [3]) were 6.72 µM (active), > 150 µM (not active) and 9.27 µM (active), respectively.
For `Cc1cccc(NC(=O)c2sc(Cl)nc2-c2ccccc2)c1`, the concentration for a half-maximal effect (EC50) on Streptokinase A was > 150 µM (not active); in the data set on Streptococcus, 19.3 µM (active); in data set [3] it was 5 µM (active).
As to `O=C(O)c1ccc(N/N=C/c2ccc(-c3ccc(Br)cc3)o2)cc1`, the concentration for a half-maximal effect (EC50) with Streptococcus was 3.02 µM (active); in data set [3], 4.26 µM (active).
Regarding `CC1=CC(C)(C)Nc2ccc(CSc3ccccc3)cc21`, the concentration at half-maximal activity (AC50) at Cytochrome P450 1A2 is 0.501 µM (inconclusive).
Still for that read-out and setting: with `COCCn1c(C)cc(C2=NN=C(Nc3ccc(F)cc3)SC2)c1C` the figure was 11.2 µM (inconclusive); with `COc1cccc(Cn2c(=O)c(C)nc3cnc(Oc4cccc(Cl)c4)nc32)c1`, 25.1 µM (inconclusive).
Take `Clc1ccc2c(c1)C=Nc1c(NCc3ccccc3)ncnc1O2`: on Cytochrome P450 1A2, the half-maximal activity concentration (AC50) is 0.631 µM (inconclusive).
With `FC(F)(F)c1cccc(NC(S)=NN=C(S)Nc2cccc(C(F)(F)F)c2)c1`, the 50% effective concentration (EC50) in the data set on Streptococcus was 4.04 µM (active); in data set [3] it was 1.65 µM (active).
In the case of `Cc1[nH]c2ccc(F)cc2c1CCN(Cc1cccnc1)C(S)=NC(C)(C)C`, the values for the EC50 in data set [1] and in data set [2] were > 60 µM (not active) and 0.577 µM (active), respectively.
As for `O=C(Oc1cccc(Br)c1)c1cccnc1`, the half-maximal activity concentration (AC50) at Cytochrome P450 2C9 and on Cytochrome P450 2C19 (read-out: AC50) was 39.8 µM (inconclusive) in each case.
As for `COc1cc2c(cc1OC)CN(C(=O)COc1ccc(C)c(C)c1)CC2`, the EC50 was > 60 µM (not active) in data set [1] and 2.93 µM (active) in data set [2].
For `COc1ccc(CNc2ccnc(-c3ccc(C(=O)N(C)C)cc3)n2)c(OC)c1`, the AC50 on Cytochrome P450 1A2 was 12.6 µM (inconclusive); on Cytochrome P450 2C19 (read-out: AC50), 20 µM (inconclusive).
In the case of `CCOC(=O)C1CCCN(C(=O)c2cc3nc(-c4ccc5c(c4)OCO5)cc(C(F)(F)F)n3n2)C1` (centres undefined), the half-maximal activity concentration (AC50) at Cytochrome P450 1A2 is 25.1 µM (inconclusive).
`CCCN(CCO)Cc1ccc(F)c(Br)c1`: the figures for the AC50 on Cytochrome P450 1A2 and at Cytochrome P450 2C9 were 15.8 µM (inconclusive) and 0.126 µM (inconclusive), respectively.
With `CC(=O)NC1(c2cccc(F)c2)CCN(CC(=O)NC(C)C)CC1`, the AC50 at Cytochrome P450 2C19 (read-out: AC50) is 39.8 µM (inconclusive).
On to `CC1CCN(CCCCOc2ccccc2[N+](=O)[O-])CC1`, for which the half-maximal activity concentration (AC50) on Cytochrome P450 2C19 (read-out: AC50) was 15.8 µM (inconclusive).
In the case of `O=C(O)CSCNC(=O)CC12CC3CC(CC(C3)C1)C2`, on Cytochrome P450 2C19 (read-out: AC50), the half-maximal activity concentration (AC50) was 28.2 µM (inconclusive).
On to `COc1ccc(N/C=C2/Sc3ccccc3NC2=O)cc1`, for which the figures for the EC50 in data set [1] and in data set [2] were > 30 µM (not active) and 1.22 µM (active), respectively.
For the compound `Oc1ccc(Br)cc1/C=N/Nc1ncc(-c2ccccc2)cn1`, the figures for the concentration giving a half-maximal response (EC50) (in the data set with Streptococcus; in data set [3]) were 2.68 µM (active) and 1.51 µM (active), respectively.
Turning to `Cc1cc(N)n(-c2ccccc2)n1`, the values for the AC50 on Cytochrome P450 1A2 and at Cytochrome P450 2C19 (read-out: AC50) were 31.6 µM (inconclusive) and 2.24 µM (inconclusive), respectively.
In the case of `COc1ccc(-c2nc3cnc(Nc4ccccc4)nc3n(CCC#N)c2=O)cc1`, the concentration at half-maximal activity (AC50) at Cytochrome P450 1A2 is 0.501 µM (inconclusive).
Take `Cc1cc(C)n2nc(C(=O)NCc3cccc(C(F)(F)F)c3)nc2n1`: the half-maximal effective concentration (EC50) in data set [1] is > 60 µM (inconclusive); in data set [2], > 60 µM (not active).
Take `O=C(NCC(c1cccs1)N1CCOCC1)c1ccco1` (centres undefined): the AC50 at Cytochrome P450 2C9 was 22.4 µM (inconclusive).
As to `Cc1nc2sccn2c(=O)c1Cl`, at Cytochrome P450 1A2, the AC50 was 15.8 µM (inconclusive).
Consider `CC1C(=O)C(C)C(c2ccc([N+](=O)[O-])cc2)NC1c1ccc([N+](=O)[O-])cc1` (centres undefined), for which the concentration giving a half-maximal response (EC50) was > 30 µM (not active) in data set [1] and 0.632 µM (active) in data set [2].
Regarding `CCn1ccnc1CN(C)Cc1cn(-c2ccc(C)cc2)nc1-c1cccc(C)c1`, the figures for the EC50 in data set [1] and in data set [2] were > 60 µM (not active) and 1.92 µM (active), respectively.
For the compound `CCC(=O)OCN1C(=O)C=CC1=O`, the AC50 at Cytochrome P450 2C19 (read-out: AC50) was 0.002 µM (inconclusive).
`CC(=O)Nc1ccc(NC(=O)CSc2nnc(-c3ccccc3)n2Cc2ccc3c(c2)OCO3)cc1`: the concentration at half-maximal activity (AC50) at Cytochrome P450 1A2 is 31.6 µM (inconclusive).
Same read-out and setting: with `O=C(NCCc1c[nH]c2ccccc12)[C@@H]1C[C@H]1[C@@H](NP(=O)(c1ccccc1)c1ccccc1)c1ccccc1` the figure was 15.8 µM (inconclusive).
Turning to `COCCNc1nc(-c2cccc(OC)c2)nc2ccccc12`, at Cytochrome P450 2C19 (read-out: AC50), the concentration at half-maximal activity (AC50) is 31.6 µM (inconclusive).
Turning to `COc1ccccc1Nc1nc(N)nc(CSC(=S)N2CCN(c3ccccc3)CC2)n1`, the EC50 in data set [1] is > 60 µM (not active); in data set [2], 2.57 µM (active).
For `CC(C)N1CCN(Cc2ccc3c(c2)Cc2ccccc2-3)CC1CCO` (centres undefined), the values for the concentration for a half-maximal effect (EC50) in data set [1] and in data set [2] were 7.87 µM (active) and 0.532 µM (active), respectively.
Turning to `Cc1ccccc1OCCn1cnc2cc([N+](=O)[O-])ccc2c1=O`, the EC50 is > 30 µM (not active) in data set [1] and 0.615 µM (active) in data set [2].
`COC(=O)[C@@]1(Cc2ccc(F)cc2)[C@H]2c3cc(C(=O)N4CCCC4)n(Cc4ccc(Cl)c(C(F)(F)F)c4)c3C[C@H]2CN1C(=O)c1ccccc1`: the half-maximal activity concentration (AC50) on Cytochrome P450 2C19 (read-out: AC50) is 31.6 µM (inconclusive).
Turning to `CC(CC(=O)O)(CC(=O)O)c1ccccc1`, the AC50 entry on Cytochrome P450 2C19 is “inconclusive”.
`Cc1cc(N)n2ncc(-c3ccc(Cl)cc3)c2n1`: at Cytochrome P450 2C9, the half-maximal activity concentration (AC50) was 31.6 µM (inconclusive).
For `NC[C@@H](O)CSCc1ccc(Cl)cc1`, the half-maximal activity concentration (AC50) on Cytochrome P450 2C19 (read-out: AC50) is 0.1 µM (inconclusive).
With `Cn1cccc1C(=O)N1CCC[C@@]2(CCN(C(c3ccccc3)c3ccccc3)C2)C1`, the AC50 was 39.8 µM (inconclusive) at Cytochrome P450 2C9 and 25.1 µM (inconclusive) at Cytochrome P450 2C19 (read-out: AC50).
As for `C[N+](C)(CCCCCC[N+](C)(C)CCCN1C(=O)c2ccccc2C1=O)CCCN1C(=O)c2ccccc2C1=O`, the half-maximal activity concentration (AC50) on Cytochrome P450 1A2 and at Cytochrome P450 2C19 (read-out: AC50) was 31.6 µM (inconclusive) in each case.
For `Cc1cc(C)c(-c2csc(NC(=O)c3cc([N+](=O)[O-])ccc3N3CCOCC3)n2)c(C)c1`, the concentration for a half-maximal effect (EC50) in data set [1] was > 30 µM (not active); in data set [2], 1.44 µM (active).
For `CCc1ccc(Nc2n[n+](-c3ccccc3)c(-c3ccc(OCc4ccccc4)cc3)s2)cc1`, the EC50 in data set [1] was > 30 µM (not active); in data set [2], 2.01 µM (active).
In the same order, the values of `CC(C)(CN1CCN(C(c2ccccc2)c2ccccc2)CC1)NS(=O)(=O)c1ccccc1` are > 60 µM (not active) and 1.7 µM (active).
On to `COc1cc(-c2nnc(SCC3(c4ccc(Br)cc4)OCCO3)o2)cc(OC)c1OC`, for which the half-maximal activity concentration (AC50) at Cytochrome P450 2C9 was 39.8 µM (inconclusive).
Regarding `O=C(NNC(=S)NC(=O)c1cccnc1)c1ccc(Cl)cc1`, the EC50 was 11.4 µM (active) with Streptococcus and 5.07 µM (active) in data set [3].
Turning to `CSc1ccccc1NC(=S)N/N=C/c1cccn1Cc1cccc(C)c1`, the EC50 in data set [1] is > 60 µM (not active); in data set [2], 2.35 µM (active).
On to `Cc1c(C(=O)OC(C)CCN(C)C)oc2ccccc12` (centres undefined), for which the EC50 in data set [1] was > 30 µM (not active); in data set [2] it was 0.574 µM (active).
